Columns and labels:
[1] = target: T1, recombinant human serotonin receptor 5-HT2A (Homo sapiens, UniProt P28223); experiment: 5-HT2A antagonist Ca2+ assay in CHO-K1 cells (method A aequorin luminescence / method B FLIPR fluorescence); assay type: cell-based; conditions: antagonist mode vs EC80 of reference agonist, method A or B, read-out: 5HT2A IC50
T1 construct: expressed in transfected cells; method B: loaded with Ca2+ dye
Summary of the method: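 IC50 was obtained by nonlinear regression of percent inhibition of the EC80 agonist Ca2+ response in CHO-K1 cells stably expressing human 5-HT2A. The readout was aequorin luminescence with agonist injected 15 min after compound (A), or Ca2+-dye fluorescence on FLIPR with serotonin as agonist (B).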

[2] = target: human sodium channel NaV1.2 (Homo sapiens, UniProt Q99250); experiment: NaV1.2 inhibition, automated patch-clamp (Q-Patch HTX), slow inactivated state (state C); assay type: cell-based; conditions: hNaV1.2 CHO cells, slow inactivated state; for IC50: read-out: NaV1.2 IC50; for inhibition at 1 µM: 1 μM compound, read-out: NaV1.2 (% inh), 1 μM; for inhibition at 10 µM: 10 μM compound, read-out: NaV1.2 (% inh), 10 μM
human sodium channel NaV1.2, sequence (Q99250 whole entry): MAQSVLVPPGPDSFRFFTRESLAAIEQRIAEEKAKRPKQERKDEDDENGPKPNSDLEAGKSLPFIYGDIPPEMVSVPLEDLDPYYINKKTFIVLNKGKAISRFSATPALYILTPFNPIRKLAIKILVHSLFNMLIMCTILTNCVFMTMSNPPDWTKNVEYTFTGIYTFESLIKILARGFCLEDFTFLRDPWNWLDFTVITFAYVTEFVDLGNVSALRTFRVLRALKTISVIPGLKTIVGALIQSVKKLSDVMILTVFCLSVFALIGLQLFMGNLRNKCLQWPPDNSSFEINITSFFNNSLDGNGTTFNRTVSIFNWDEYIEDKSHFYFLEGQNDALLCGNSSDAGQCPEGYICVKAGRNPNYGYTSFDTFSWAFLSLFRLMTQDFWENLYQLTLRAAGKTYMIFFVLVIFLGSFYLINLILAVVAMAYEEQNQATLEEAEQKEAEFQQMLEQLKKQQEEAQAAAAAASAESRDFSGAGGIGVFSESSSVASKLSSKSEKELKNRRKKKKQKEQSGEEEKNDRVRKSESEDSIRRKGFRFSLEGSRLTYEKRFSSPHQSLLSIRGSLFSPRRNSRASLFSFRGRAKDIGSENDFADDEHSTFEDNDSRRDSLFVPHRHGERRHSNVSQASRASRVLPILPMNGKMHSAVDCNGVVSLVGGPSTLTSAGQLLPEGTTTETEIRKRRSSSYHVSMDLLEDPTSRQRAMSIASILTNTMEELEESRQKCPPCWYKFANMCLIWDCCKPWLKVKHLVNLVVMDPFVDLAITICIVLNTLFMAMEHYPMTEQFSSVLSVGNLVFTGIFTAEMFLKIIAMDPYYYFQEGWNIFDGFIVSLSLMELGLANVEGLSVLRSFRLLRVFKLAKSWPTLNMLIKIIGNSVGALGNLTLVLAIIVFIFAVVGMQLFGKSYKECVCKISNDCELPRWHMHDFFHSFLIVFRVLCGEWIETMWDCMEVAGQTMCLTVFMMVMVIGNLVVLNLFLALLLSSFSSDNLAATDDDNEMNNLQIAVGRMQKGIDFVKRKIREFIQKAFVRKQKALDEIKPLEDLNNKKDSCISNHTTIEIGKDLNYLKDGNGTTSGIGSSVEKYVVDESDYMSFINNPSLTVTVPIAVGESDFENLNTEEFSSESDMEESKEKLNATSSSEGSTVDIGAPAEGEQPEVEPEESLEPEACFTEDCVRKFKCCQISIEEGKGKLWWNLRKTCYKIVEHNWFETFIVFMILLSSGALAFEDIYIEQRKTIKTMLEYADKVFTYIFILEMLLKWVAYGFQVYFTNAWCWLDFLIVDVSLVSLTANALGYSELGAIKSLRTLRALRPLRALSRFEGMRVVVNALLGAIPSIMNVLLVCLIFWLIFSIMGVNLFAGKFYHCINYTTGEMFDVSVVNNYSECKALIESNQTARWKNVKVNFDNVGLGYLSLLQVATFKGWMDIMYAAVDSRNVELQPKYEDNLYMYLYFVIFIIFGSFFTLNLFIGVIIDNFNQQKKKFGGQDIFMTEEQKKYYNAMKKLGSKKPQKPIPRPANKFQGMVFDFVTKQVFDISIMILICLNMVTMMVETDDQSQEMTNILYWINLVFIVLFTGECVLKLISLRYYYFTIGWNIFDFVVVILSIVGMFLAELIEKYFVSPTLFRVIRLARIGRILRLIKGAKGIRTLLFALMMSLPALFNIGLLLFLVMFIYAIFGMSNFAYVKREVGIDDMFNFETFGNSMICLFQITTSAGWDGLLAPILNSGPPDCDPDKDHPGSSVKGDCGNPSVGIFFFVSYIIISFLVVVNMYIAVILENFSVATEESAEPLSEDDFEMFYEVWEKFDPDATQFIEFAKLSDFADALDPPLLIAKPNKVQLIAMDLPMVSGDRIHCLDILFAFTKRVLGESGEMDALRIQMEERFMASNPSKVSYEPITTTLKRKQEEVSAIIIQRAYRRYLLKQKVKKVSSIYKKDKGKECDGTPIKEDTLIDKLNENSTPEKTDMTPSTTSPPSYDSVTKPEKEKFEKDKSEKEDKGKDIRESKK
Text: In vitro method for NaV1.2 inhibition assays: The methods utilized to assess the inhibitory activity of compounds on NaV1.2 were based on the methods described by Liu et al. [Liu Y, Beck E J, & Flores C M (2011): Validation of a patch clamp screening protocol that simultaneously measures compound activity in multiple states of the voltage-gated sodium channel Nav1.2. Assay Drug Development Technology 9, 628-634]. For these electrophysiology assays, a cell line (Chinese Hamster Ovarian K-1 cells (CHO K-1)) engineered to stably express human sodium channel NaV1.2 was purchased from Millipore Corporation (catalog no. CYL3023). The electrophysiology measurements were performed using automated patch-clamp methods on a Q-Patch HTX instrument by scientists at Evotec AG under contract with Sunovion.
The solutions utilized for the Qpatch experiments were similar buffered solutions to those described by Liu et al. [Liu Y, Beck E J, & Flores C M (2011)]. The extracellular solution contained 140 millimolar sodium chloride, 4 millimolar potassium chloride, 2 millimolar calcium chloride, 1 millimolar magnesium chloride, 10 millimolar 4-(2-hydroxyethyl)-1-piperazineethanesulfonic acid (HEPES), and 10 millimolar glucose (pH adjusted to 7.4 with sodium hydroxide). The intracellular solution contained 100 millimolar cesium fluoride, 45 millimolar cesium chloride, 10 millimolar HEPES, 5 millimolar ethylene glycol tetraacetic acid (EGTA), and 5 millimolar glucose (pH adjusted to 7.2 with cesium hydroxide).
The biophysical experiments of Lui et al. [Liu Y, Beck E J, & Flores C M (2011)] were replicated to assess the fast, slow and total inactivation characteristics of the human Nav1.2 channel
Based upon results from studies of the fast, slow and total inactivation characteristics of the human Nav1.2 channel, a voltage protocol involving a sequence of consecutive pulses of current was used to measure channel activity in several states [Liu Y, Beck E J, & Flores C M (2011)]. The monolayer of CHO K-1 cells stably expressing human sodium channel NaV1.2 (hNaV1.2 CHO cells) was maintained in the Qpatch instrument at a potential of −100 millivolts (mV) except when the voltage protocol was being executed. The first pulse in the protocol involved a 100 millisecond depolarization to 0 mV to enable measurement of channel availability in the closed state (state A). The potential was then maintained at −90 mV for 15 milliseconds, followed by a five millisecond period of depolarization to 0 mV to enable measurement of channel availability after partial recovery from fast inactivation (state B). Next, the potential was maintained at −90 mV for 300 milliseconds, followed by ten seconds at −50 mV, 15 milliseconds at −90 mV, and finally another five millisecond period of depolarization to 0 mV to enable measurement of channel availability after additional recovery from fast inactivation and significant entry into the slow inactivated state (state C). Finally, after an additional 300 millisecond period at −90 mV, another five millisecond period of depolarization to 0 mV was employed to enable measurement of channel availability after partial recovery from the slow inactivated state (state D). Measurements of activity at state C were used to assess the activity of the NaV1.2 channel in the slow inactivated state. Comparison of activity after addition of test compounds or reference compounds with activity after addition of vehicle only provided a measure of percent remaining activity from which percent inhibition was calculated. […] A slight modification of this protocol was utilized to provide measurements as a function of compound concentration, which enabled IC50 values to be determined. IC50 values were calculated by non-linear least squares regression of the data (percent inhibition of ion channel NaV1.2 activity in the slow inactivated state) onto equation (1): % inhibition=100%/(1+(IC50/[compound]) equation (1)
J Pharmacol Exp Ther. 2008 July; 326(1):89-99.].

T1 sequence (P28223 whole entry): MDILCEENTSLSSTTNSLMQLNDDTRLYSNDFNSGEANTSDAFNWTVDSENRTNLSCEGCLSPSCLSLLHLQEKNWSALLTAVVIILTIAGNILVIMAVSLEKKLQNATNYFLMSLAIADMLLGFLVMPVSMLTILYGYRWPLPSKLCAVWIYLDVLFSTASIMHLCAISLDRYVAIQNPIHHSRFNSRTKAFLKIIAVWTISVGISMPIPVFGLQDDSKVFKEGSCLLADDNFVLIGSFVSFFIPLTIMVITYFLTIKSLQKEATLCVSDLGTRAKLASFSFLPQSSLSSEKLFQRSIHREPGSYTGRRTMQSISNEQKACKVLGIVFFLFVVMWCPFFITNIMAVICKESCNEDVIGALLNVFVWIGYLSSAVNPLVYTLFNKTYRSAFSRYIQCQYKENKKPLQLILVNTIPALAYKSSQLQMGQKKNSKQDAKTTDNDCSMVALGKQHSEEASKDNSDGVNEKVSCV

| SMILES | IC50 [1] [nM] | IC50 [2] [nM] | inhibition at 1 µM [2] [%] | inhibition at 10 µM [2] [%] |
| --- | --- | --- | --- | --- |
| c1ccc([C@H]2COC3(CCN(C[C@H]4CCc5ccccc54)CC3)C2)cc1 (single isomer, unassigned) [Compound 377] | 30 | 790 |  |  |
| c1ccc([C@H]2COC3(CCN(C[C@@H]4CCc5ccccc54)CC3)C2)cc1 (single isomer, unassigned) [Compound 378] | 60 | 770 |  |  |
| c1ccc([C@@H]2COC3(CCN(C[C@H]4CCc5ccccc54)CC3)C2)cc1 (single isomer, unassigned) [Compound 379] | 40 | 290 |  |  |
| c1ccc(O[C@H]2COC3(CCN(C[C@H]4CCc5ccccc54)CC3)C2)cc1 (single isomer, unassigned) [Compound 381] | 20 | 290 |  |  |
| c1ccc(O[C@H]2COC3(CCN(C[C@@H]4CCc5ccccc54)CC3)C2)cc1 (single isomer, unassigned) [Compound 382] | 60 | 1210 |  |  |
| c1ccc(O[C@@H]2COC3(CCN(C[C@@H]4CCc5ccccc54)CC3)C2)cc1 (single isomer, unassigned) [Compound 383] | 340 | 110 |  |  |
| c1ccc(O[C@@H]2COC3(CCN(C[C@H]4CCc5ccccc54)CC3)C2)cc1 (single isomer, unassigned) [Compound 384] | 300 | 290 |  |  |
| COc1ccccc1OC1CCN(CC2Cc3ccccc3C2)[C@@H](C)C1 (single isomer, unassigned) [Example 147] | 70 | 1530 |  |  |
| COc1ccc2c(c1)C(CN1CC3CCC1CN3c1ccccc1)CC2 (single isomer, unassigned) [Example 310] | 30 | 700 |  |  |
| c1ccc(C2COC3(CCN(CC4CCc5ccccc54)CC3)C2)cc1 (single isomer, unassigned) [Example 375, 8-((2,3-dihydro-1H-inden-1-yl)methyl)-3-phenyl-1-oxa-8-azaspiro[4,5]decane] | 260 | 350 |  |  |
| c1ccc(OC2COC3(CCN(CC4CCc5ccccc54)CC3)C2)cc1 (single isomer, unassigned) [Example 380, 8-((2,3-dihydro-1H-inden-1-yl)methyl)-3-phenoxy-1-oxa-8-azaspiro[4.5]decane] | 150 | 120 |  |  |
| Fc1ccc(O[C@@H]2CCN(CC3CCc4ncccc43)C2)cc1 (stereo partly drawn) [Example 3, 5-(((R)-3-(4-fluorophenoxy)pyrrolidin-1-yl)methyl)-6,7-dihydro-5H-cyclopenta[b]pyridine] | 1880 |  | -5 |  |
| Fc1ccc(O[C@H]2CCN(CC3CCc4cccnc43)C2)cc1 (stereo partly drawn) [Example 8, 7-(((S)-3-(4-fluorophenoxy)pyrrolidin-1-yl)methyl)-6,7-dihydro-5H-cyclopenta[b]pyridine] | 980 | 7450 |  |  |
| OC1(CN2CC[C@@H](Oc3ccc(F)cc3)C2)COCc2ccccc21 (stereo partly drawn) [Example 9, 4-(((R)-3-(4-fluorophenoxy)pyrrolidin-1-yl)methyl)isochroman-4-ol] | 600 |  | 1 |  |
| OC1(CN2CC[C@H](Oc3ccc(F)cc3)C2)COCc2ccccc21 (stereo partly drawn) [Example 10, 4-(((S)-3-(4-fluorophenoxy)pyrrolidin-1-yl)methyl)isochroman-4-ol] | 310 |  | 3 |  |
| Fc1ccc(O[C@@H]2CCN(CC3COCc4ccccc43)C2)cc1 (stereo partly drawn) [Example 11, (3R)-3-(4-fluorophenoxy)-1-(isochroman-4-ylmethyl)pyrrolidine] | 590 |  | 29 |  |
| Fc1ccc(O[C@H]2CCN(CC3COCc4ccccc43)C2)cc1 (stereo partly drawn) [Example 12, (3S)-3-(4-fluorophenoxy)-1-(isochroman-4-ylmethyl)pyrrolidine] | 300 | 3230 |  |  |
| O=C1c2ccccc2CCN1CCN1CC[C@@H](Oc2ccc(F)cc2)C1 [Example 25, (R)-2-(2-(3-(4-fluorophenoxy)pyrrolidin-1-yl)ethyl)-3,4-dihydroisoquinolin-1(2H)-one] | 170 |  |  | 83 |
| O=C1c2ccccc2CCN1CCN1CC[C@H](Oc2ccc(F)cc2)C1 [Example 26, (S)-2-(2-(3-(4-fluorophenoxy)pyrrolidin-1-yl)ethyl)-3,4-dihydroisoquinolin-1(2H)-one] | 170 |  |  | 70 |
| OC(CO[C@@H]1CCc2ccccc21)CN1CC[C@@H](Oc2cccc(F)c2)C1 (stereo partly drawn) [Example 36, 1-(((R)-2,3-dihydro-1H-inden-1-yl)oxy)-3-((R)-3-(3-fluorophenoxy)pyrrolidin-1-yl)propan-2-ol] | 1760 | 250 |  |  |
| OC(CO[C@H]1CCc2ccccc21)CN1CC[C@@H](Oc2ccc(F)cc2)C1 (stereo partly drawn) [Example 42, 1-(((S)-2,3-dihydro-1H-inden-1-yl)oxy)-3-((R)-3-(4-fluorophenoxy)pyrrolidin-1-yl)propan-2-ol] | 830 | 750 |  |  |
| OC(CO[C@@H]1CCc2ccccc21)CN1CC[C@@H](Oc2ccc(F)cc2)C1 (stereo partly drawn) [Example 44, 1-(((R)-2,3-dihydro-1H-inden-1-yl)oxy)-3-((R)-3-(4-fluorophenoxy)pyrrolidin-1-yl)propan-2-ol] | 140 | 240 |  |  |
| OC(CO[C@@H]1CCc2ccccc21)CN1CC[C@H](Oc2ccc(F)cc2)C1 (stereo partly drawn) [Example 45, 1-(((R)-2,3-dihydro-1H-inden-1-yl)oxy)-3-((S)-3-(4-fluorophenoxy)pyrrolidin-1-yl)propan-2-ol] | 610 |  |  | 85 |
| O[C@H](CO[C@@H]1CCc2ccccc21)CN1CC[C@@H](Oc2ccc(F)cc2)C1 [Example 46, (S)-1-(((R)-2,3-dihydro-1H-inden-1-yl)oxy)-3-((R)-3-(4-fluorophenoxy)pyrrolidin-1-yl)propan-2-ol] | 30 |  | 41 |  |
| O[C@@H](CO[C@@H]1CCc2ccccc21)CN1CC[C@@H](Oc2ccc(F)cc2)C1 [Example 47, (R)-1-(((R)-2,3-dihydro-1H-inden-1-yl)oxy)-3-((R)-3-(4-fluorophenoxy)pyrrolidin-1-yl)propan-2-ol] | 100 | 360 |  |  |
| OC(CO[C@@H]1CCCc2ccccc21)CN1CC[C@@H](Oc2ccc(F)cc2)C1 (stereo partly drawn) [Example 50, 1-((R)-3-(4-fluorophenoxy)pyrrolidin-1-yl)-3-(((R)-1,2,3,4-tetrahydronaphthalen-1-yl)oxy)propan-2-ol] | 60 | 1290 |  |  |
| O[C@H](CO[C@@H]1CCCc2ccccc21)CN1CC[C@@H](Oc2ccc(F)cc2)C1 [Example 52, (S)-1-((R)-3-(4-fluorophenoxy)pyrrolidin-1-yl)-3-(((R)-1,2,3,4-tetrahydronaphthalen-1-yl)oxy)propan-2-ol] | 140 | 1690 |  |  |
| O[C@@H](CO[C@@H]1CCCc2ccccc21)CN1CC[C@@H](Oc2ccc(F)cc2)C1 [Example 53, (R)-1-((R)-3-(4-fluorophenoxy)pyrrolidin-1-yl)-3-(((R)-1,2,3,4-tetrahydronaphthalen-1-yl)oxy)propan-2-ol] | 230 | 1930 |  |  |
| c1ccc(N2CCN(CC3CCc4ccccc43)CC2)cc1 (stereo not shown) [Example 55, 1-((2,3-dihydro-1H-inden-1-yl)methyl)-4-phenylpiperazine] | 10 | 4120 |  |  |

Source: patent US11186564B2, “Dual NAV1.2/5HT2a inhibitors for treating CNS disorders” (Sunovion Pharmaceuticals Inc., priority 2016, dated 2021)
